# Experimental data: publication PMC6499206, “Quantification of Volatile Metabolites Derived From Garlic (Allium sativum) in Human Urine” (Frontiers in Nutrition, 2019)
# Test: Quantification of garlic-derived metabolites in human urine after ingestion of 3 g raw garlic (SIDA, SAFE, HRGC-MS / HRGC-GC-MS)
# Assay type: in vivo
# Settings: 3 g raw garlic
# Excerpt: Human urine samples were obtained from 18 volunteers (age 22–38 years, mean 27 years; 11 females, 7 males); thereby, one volunteer conducted the whole experimental series twice. At the time of examination, volunteers reported no known illness that might have potentially influenced the metabolism or the excretion of urine. The test persons were instructed to avoid foods that were rich in sulfur-containing substances at the testing day as well as 2 days preceding the testing day, namely garlic, onion, wild garlic, chives, cabbage, and leek, and were only allowed to consume the garlic sample provided in the course of the experiments. Additionally, subjects were asked to keep records of the food (including food supplements) and beverages they consumed during these 3 testing days. Generally, the overall panelists' requirements were in accordance with our previous studies ([5], [16]).
# On the sampling day, the outer garlic cloves of a whole garlic bulb were peeled and cut into ~3 mm cubes by using a garlic cutter (Genius GmbH, Limburg/Lahn, Germany). Subsequently these cubes were thoroughly mixed and aliquoted into 3 g portions. Three to four test persons conducted the experiment at the same day. Each test person was asked to ingest a garlic portion of 3 g. In total, eight consecutive urine samples were provided by each test person, comprising one whole urine set. The samples were collected in sterile brown glass bottles, with sampling times as follows: one sample was provided directly prior to garlic consumption. The series of the second to eighth sample was then obtained at about 0.5, 1, 2, 4, 6, 8, and 24 h after garlic consumption, respectively. Between the first urine sample (prior to garlic consumption) and the seventh urine sample (8 h after garlic consumption) test persons only spent urine at the specific time points mentioned before. Another sample was provided at the next morning (24 h after garlic consumption). Between the samples provided 8 and 24 h after garlic consumption no urine was collected. All samples were immediately placed into a −80°C freezer and were kept frozen until further analysis.
# The samples of each set were termed according to their sampling time. The following list provides the time intervals that are related to the respective sample name: • - pre: before garlic consumption • - 0.5 h post: 0.4–0.8 h after garlic consumption • - 1 h post: 0.9–1.3 h after garlic consumption • - 2 h post: 1.8 h−2.2 h after garlic consumption • - 4 h post: 3.8–4.4 h after garlic consumption • - 6 h post: 5.8–6.4 h after garlic consumption • - 8 h post: 7.8–8.4 h after garlic consumption • - 24 h post: 23.8–25.6 h after garlic consumption
# A creatinine kit (Labor+Technik Eberhard Lehmann GmbH, Berlin, Germany) was used to determine the creatinine content in each urine sample. The determination principle of this kit is based on the reaction of creatinine with picric acid under basic conditions (Jaffé reaction). The formed complex was detected photometrically at a wavelength of 492 nm.
# For quantification purposes, the deuterated standards ^2H3-AMS, ^2H3-AMSO, and ^2H3-AMSO2 were added to the sample and stirred for 10 min. Subsequently, DCM was added in a ratio of 1:2 (DCM/human urine; v/v) and this solution was stirred for further 30 min at room temperature. To isolate the volatile fraction from the urine samples we then applied SAFE-distillation ([17]), thereby distilling the respective samples at 50°C. After completion of the distillation process, 10 mL of DCM were applied in each case to rinse the SAFE apparatus and to ensure complete transition of the volatile compounds. This process was repeated with another 10 mL of DCM. After thawing, the obtained aqueous distillate phase was extracted three times with 25 mL DCM. The organic phases were combined, dried over anhydrous Na2SO4 and concentrated to a total volume of 100 μL by means of Vigreux distillation and subsequent micro-distillation at 50°C. […]
smiles,measurement,setting,value
"C=CCS(C)(=O)=O [AMSO2, allyl methyl sulfone]",metabolite concentration in urine,"U VII, 1 h post (1.08 h)",125.9 µg/kg
same,"metabolite concentration in urine, creatinine-normalized","U VII, 1 h post (1.08 h)",78.0 µg/mmol creatinine
same,metabolite concentration in urine,"U VII, 2 h post (2.00 h)",139.9 µg/kg
same,"metabolite concentration in urine, creatinine-normalized","U VII, 2 h post (2.00 h)",143.4 µg/mmol creatinine
same,metabolite concentration in urine,"U VII, 4 h post (4.00 h)",170.5 µg/kg
same,"metabolite concentration in urine, creatinine-normalized","U VII, 4 h post (4.00 h)",105.6 µg/mmol creatinine
same,metabolite concentration in urine,"U VII, 6 h post (6.00 h)",203.6 µg/kg
same,"metabolite concentration in urine, creatinine-normalized","U VII, 6 h post (6.00 h)",65.5 µg/mmol creatinine
same,metabolite concentration in urine,"U VII, 8 h post (8.00 h)",147.2 µg/kg
same,"metabolite concentration in urine, creatinine-normalized","U VII, 8 h post (8.00 h)",75.5 µg/mmol creatinine
same,metabolite concentration in urine,"U VII, 24 h post (24.00 h)",15.7 µg/kg
same,"metabolite concentration in urine, creatinine-normalized","U VII, 24 h post (24.00 h)",4.2 µg/mmol creatinine
same,metabolite concentration in urine,"U VII, pre (-0.25 h)",7.0 µg/kg
same,"metabolite concentration in urine, creatinine-normalized","U VII, pre (-0.25 h)",2.0 µg/mmol creatinine
same,metabolite concentration in urine,"U VIII, 0.5 h post (0.52 h)",112.9 µg/kg
same,"metabolite concentration in urine, creatinine-normalized","U VIII, 0.5 h post (0.52 h)",143.6 µg/mmol creatinine
same,metabolite concentration in urine,"U VIII, 1 h post (1.08 h)",256.0 µg/kg
same,"metabolite concentration in urine, creatinine-normalized","U VIII, 1 h post (1.08 h)",154.0 µg/mmol creatinine
same,metabolite concentration in urine,"U VIII, 2 h post (2.08 h)",301.1 µg/kg
same,"metabolite concentration in urine, creatinine-normalized","U VIII, 2 h post (2.08 h)",284.7 µg/mmol creatinine
same,metabolite concentration in urine,"U VIII, 4 h post (4.07 h)",322.0 µg/kg
same,"metabolite concentration in urine, creatinine-normalized","U VIII, 4 h post (4.07 h)",152.2 µg/mmol creatinine
same,metabolite concentration in urine,"U VIII, 6 h post (6.08 h)",348.3 µg/kg
same,"metabolite concentration in urine, creatinine-normalized","U VIII, 6 h post (6.08 h)",92.2 µg/mmol creatinine
same,metabolite concentration in urine,"U VIII, 8 h post (7.90 h)",255.0 µg/kg
same,"metabolite concentration in urine, creatinine-normalized","U VIII, 8 h post (7.90 h)",92.7 µg/mmol creatinine
same,metabolite concentration in urine,"U VIII, 24 h post (23.83 h)",48.3 µg/kg
same,"metabolite concentration in urine, creatinine-normalized","U VIII, 24 h post (23.83 h)",18.1 µg/mmol creatinine
same,metabolite concentration in urine,"U VIII, pre (-0.33 h)",97.6 µg/kg
same,"metabolite concentration in urine, creatinine-normalized","U VIII, pre (-0.33 h)",21.82 µg/mmol creatinine
same,metabolite concentration in urine,"U X, 0.5 h post (0.53 h)",15.5 µg/kg
same,"metabolite concentration in urine, creatinine-normalized","U X, 0.5 h post (0.53 h)",8.0 µg/mmol creatinine
same,metabolite concentration in urine,"U X, 1 h post (1.03 h)",27.7 µg/kg
same,"metabolite concentration in urine, creatinine-normalized","U X, 1 h post (1.03 h)",35.2 µg/mmol creatinine
same,metabolite concentration in urine,"U X, 2 h post (2.03 h)",48.6 µg/kg
same,"metabolite concentration in urine, creatinine-normalized","U X, 2 h post (2.03 h)",72.3 µg/mmol creatinine
same,metabolite concentration in urine,"U X, 4 h post (3.85 h)",79.1 µg/kg
same,"metabolite concentration in urine, creatinine-normalized","U X, 4 h post (3.85 h)",60.1 µg/mmol creatinine
same,metabolite concentration in urine,"U X, 6 h post (5.80 h)",89.3 µg/kg
same,"metabolite concentration in urine, creatinine-normalized","U X, 6 h post (5.80 h)",37.7 µg/mmol creatinine
same,metabolite concentration in urine,"U X, 8 h post (7.75 h)",85.2 µg/kg
same,"metabolite concentration in urine, creatinine-normalized","U X, 8 h post (7.75 h)",36.5 µg/mmol creatinine
same,metabolite concentration in urine,"U X, 24 h post (23.97 h)",53.0 µg/kg
same,"metabolite concentration in urine, creatinine-normalized","U X, 24 h post (23.97 h)",4.9 µg/mmol creatinine
same,metabolite concentration in urine,"U X, pre (-0.07 h)",< LOD^3
same,"metabolite concentration in urine, creatinine-normalized","U X, pre (-0.07 h)",< LOD^3
same,metabolite concentration in urine,"U XI, 0.5 h post (0.50 h)",27.5 µg/kg
same,"metabolite concentration in urine, creatinine-normalized","U XI, 0.5 h post (0.50 h)",33.4 µg/mmol creatinine
same,metabolite concentration in urine,"U XI, 1 h post (1.02 h)",65.7 µg/kg
same,"metabolite concentration in urine, creatinine-normalized","U XI, 1 h post (1.02 h)",82.6 µg/mmol creatinine
same,metabolite concentration in urine,"U XI, 2 h post (2.00 h)",93.5 µg/kg
same,"metabolite concentration in urine, creatinine-normalized","U XI, 2 h post (2.00 h)",122.1 µg/mmol creatinine
same,metabolite concentration in urine,"U XI, pre (-0.08 h)",9.0 µg/kg
same,"metabolite concentration in urine, creatinine-normalized","U XI, pre (-0.08 h)",2.6 µg/mmol creatinine
same,metabolite concentration in urine,"U XII, 0.5 h post (0.48 h)",17.3 µg/kg
same,"metabolite concentration in urine, creatinine-normalized","U XII, 0.5 h post (0.48 h)",2.3 µg/mmol creatinine
same,metabolite concentration in urine,"U XII, 1 h post (1.03 h)",33.1 µg/kg
same,"metabolite concentration in urine, creatinine-normalized","U XII, 1 h post (1.03 h)",33.6 µg/mmol creatinine
